Data as given in patent publication US6376426B1, “Herbicidal 3-(heterocycl-1-yl)-uracils” (BASF Aktiengesellschaft, priority 1999, dated 2002).

How the values were obtained:
Type in all cases: in vivo
Triticum aestivum [1] = test: Pre-emergence herbicidal test, TRZAW; details: 21 days after spraying
Procedure: (§1) To evaluate their herbicidal activity, compounds according to the invention are tested using a representative range of plants:
(§2) The pre-emergence tests involve spraying a liquid formulation of the compound onto the soil in which the seeds of the plant species mentioned above has recently been sown.
(§3) The soil used in the tests is a prepared horticultural loam. The formulations used in the tests are prepared from solutions of the test compounds in acetone containing 0.4% by weight of an alkylphenol/ethylene oxide condensate available under the trade mark TRITON X-155. […] In these tests untreated sown soil are used as controls.
(§4) The herbicidal effects of the test compounds are assessed visually twenty-one days after spraying the foliage and the soil and are recorded on a 0-9 scale. A rating 0 indicates growth as untreated control, a rating 9 indicates death. An increase of 1 unit on the linear scale approximates to a 10% increase in the level of effect.

Zea mays [2] = test: Pre-emergence herbicidal test, ZEAMX; parameters: key to herbicidal effect (0-9 scale) ZEAMX / herbicidal rating ZEAMX: A rating 0 indicates growth as untreated control; a rating 9 indicates death; details: for herbicidal effect (0-9 scale) ZEAMX: PRE, 21 days after spraying
Setaria viridis [3] = test: Pre-emergence herbicidal test, SETVI; parameters: key to herbicidal effect (0-9 scale) SETVI / herbicidal rating SETVI: A rating 0 indicates growth as untreated control; a rating 9 indicates death; details: for herbicidal effect (0-9 scale) SETVI: PRE, 21 days after spraying
Echinochloa crus-galli [4] = test: Pre-emergence herbicidal test, ECHCG; details: 21 days after spraying
Alopecurus myosuroides [5] = test: Pre-emergence herbicidal test, ALOMY; details: PRE, 21 days after spraying
Ipomoea hederacea [6] = test: Pre-emergence herbicidal test, IPOHE; parameters: key: A rating 0 indicates growth as untreated control; a rating 9 indicates death; details: 21 days after spraying
Galium aparine [7] = test: Pre-emergence herbicidal test, GALAP; details: PRE, 21 days after spraying
Abutilon theophrasti [8] = test: Pre-emergence herbicidal test, ABUTH; parameters: key to herbicidal effect (0-9 scale) ABUTH / herbicidal rating ABUTH: A rating 0 indicates growth as untreated control; a rating 9 indicates death; details: for herbicidal effect (0-9 scale) ABUTH: PRE, 21 days after spraying
Stellaria media [9] = test: Pre-emergence herbicidal test, STEME; parameters: key to herbicidal effect (0-9 scale) STEME / herbicidal rating STEME: A rating 0 indicates growth as untreated control; a rating 9 indicates death; details: PRE, 21 days after spraying
Matricaria inodora [10] = test: Pre-emergence herbicidal test, MATIN; parameters: key to herbicidal effect (0-9 scale) MATIN / herbicidal rating MATIN: A rating 0 indicates growth as untreated control; a rating 9 indicates death; details: for herbicidal effect (0-9 scale) MATIN: PRE, 21 days after spraying
Triticum aestivum [11] = test: Post-emergence herbicidal test, TRZAW; parameters: key to herbicidal effect (0-9 scale) TRZAW: A rating 0 indicates growth as untreated control; a rating 9 indicates death; details: for herbicidal effect (0-9 scale) TRZAW: POST, 21 days after spraying
Procedure: as §1
(§5) […] After spraying, the plants are placed on greenhouse benches and are cared for in the usual manner, commensurate with conventional greenhouse practices.
as §4

Zea mays [12] = test: Post-emergence herbicidal test, ZEAMX; details: 21 days after spraying
Method in brief: (§6)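 Herbicidal effect is recorded on a linear 0-9 scale, where 0 means growth like untreated control and 9 means death, with one unit approximating 10% more effect.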

Setaria viridis [13] = test: Post-emergence herbicidal test, SETVI; parameters: key to herbicidal effect (0-9 scale) SETVI / herbicidal rating SETVI: A rating 0 indicates growth as untreated control; a rating 9 indicates death; details: for herbicidal effect (0-9 scale) SETVI: POST, 21 days after spraying
Method in brief: as §6

Echinochloa crus-galli [14] = test: Post-emergence herbicidal test, ECHCG; details: 21 days after spraying
Method in brief: as §6

Alopecurus myosuroides [15] = test: Post-emergence herbicidal test, ALOMY; details: 21 days after spraying
Method in brief: (§7)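 Dilute acetone solutions of test compound with water; spray foliage and soil post-emergence at rates equivalent to about 1000, 800, 400, 250 or 100 g/ha. Maintain plants on greenhouse benches.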

Ipomoea hederacea [16] = test: Post-emergence herbicidal test, IPOHE; parameters: key to herbicidal effect (0-9 scale) IPOHE / herbicidal rating IPOHE: A rating 0 indicates growth as untreated control; a rating 9 indicates death; details: POST, 21 days after spraying
Method in brief: as §7

Galium aparine [17] = test: Post-emergence herbicidal test, GALAP; parameters: key to herbicidal effect (0-9 scale) GALAP / herbicidal rating GALAP: A rating 0 indicates growth as untreated control; a rating 9 indicates death; details: for herbicidal effect (0-9 scale) GALAP: POST, 21 days after spraying
Method in brief: as §6

Abutilon theophrasti [18] = test: Post-emergence herbicidal test, ABUTH; parameters: key to herbicidal effect (0-9 scale) ABUTH / herbicidal rating ABUTH: A rating 0 indicates growth as untreated control; a rating 9 indicates death; details: POST, 21 days after spraying
Method in brief: as §6

Stellaria media [19] = test: Post-emergence herbicidal test, STEME; parameters: key to herbicidal effect (0-9 scale) STEME / herbicidal rating STEME: A rating 0 indicates growth as untreated control; a rating 9 indicates death; details: POST, 21 days after spraying
Method in brief: as §6

Matricaria inodora [20] = test: Post-emergence herbicidal test, MATIN; parameters: key to herbicidal effect (0-9 scale) MATIN / herbicidal rating MATIN: A rating 0 indicates growth as untreated control; a rating 9 indicates death; details: POST, 21 days after spraying
Method in brief: as §6

Cyperus = test: Pre-emergence herbicidal test, Cyperus; details: 100 g/ha
Procedure: as §2, §3, §4

Ambrosia = test: Pre-emergence herbicidal test, Ambrosia; details: 100 g/ha
Procedure: as §2, §3, §4

[21] = system: representative range of plants; test: Pre-emergence herbicidal test, summary over the plants tested; details: 400 g/ha
Procedure: as §1, §2, §3, §4

[22] = system: representative range of plants; test: Post-emergence herbicidal test, summary over the plants tested
Procedure: as §1, §5, §4

[23] = system: representative range of plants; test: Herbicidal activity, pre- and post-emergence, overall; details: both in pre- and post-emergence
Procedure: as §1, §2
The soil used in the tests is a prepared horticultural loam. The formulations used in the tests are prepared from solutions of the test compounds in acetone containing 0.4% by weight of an alkylphenol/ethylene oxide condensate available under the trade mark TRITON X-155. These acetone solutions are diluted with water and the resulting formulations applied at dosage levels corresponding to 1000 g and 250 g/ha of active material per hectare in a volume equivalent to 900 litres per hectare. In these tests untreated sown soil are used as controls.
These acetone solutions are diluted with water and the resulting formulations applied at dosage levels equivalent to about 1000, 800, 400, 250 or 100 g/ha per hectare of test compound per pot. After spraying, the plants are placed on greenhouse benches and are cared for in the usual manner, commensurate with conventional greenhouse practices.
as §4

Cn1c(C(F)(F)F)cc(=O)n(-n2ncc3cc([N+](=O)[O-])ccc32)c1=O [Example 7]
herbicidal effect (0-9 scale) TRZAW (Triticum aestivum [1]; 100 g/ha): 1 | herbicidal effect (0-9 scale) TRZAW (Triticum aestivum [1]; 400 g/ha): 4 | herbicidal effect (0-9 scale) ZEAMX (Zea mays [2]; 100 g/ha): 0 | herbicidal effect (0-9 scale) ZEAMX (Zea mays [2]; 400 g/ha): 4 | selectivity in maize (Zea mays [2]; pre-emergence, 100 g/ha): surprisingly good selectivity | herbicidal effect (0-9 scale) SETVI (Setaria viridis [3]; 100 g/ha): 8 | herbicidal effect (0-9 scale) SETVI (Setaria viridis [3]; 400 g/ha): 9 | control of Setaria (Setaria viridis [3]; pre-emergence, 100 g/ha): good control | herbicidal effect (0-9 scale) ECHCG (Echinochloa crus-galli [4]; 100 g/ha): 7 | herbicidal effect (0-9 scale) ECHCG (Echinochloa crus-galli [4]; 400 g/ha): 8 | herbicidal effect (0-9 scale) ALOMY (Alopecurus myosuroides [5]; 100 g/ha): 3 | herbicidal effect (0-9 scale) ALOMY (Alopecurus myosuroides [5]; 400 g/ha): 6 | herbicidal effect (0-9 scale) IPOHE (Ipomoea hederacea [6]; 100 g/ha): 7 | herbicidal effect (0-9 scale) IPOHE (Ipomoea hederacea [6]; 400 g/ha): 9 | herbicidal effect (0-9 scale) GALAP (Galium aparine [7]; 100 g/ha): 4 | herbicidal effect (0-9 scale) GALAP (Galium aparine [7]; 400 g/ha): 8 | herbicidal effect (0-9 scale) ABUTH (Abutilon theophrasti [8]; 100 g/ha): 9 | herbicidal effect (0-9 scale) ABUTH (Abutilon theophrasti [8]; 400 g/ha): 9 | control of Abutilon (Abutilon theophrasti [8]; pre-emergence, 100 g/ha): good control | herbicidal effect (0-9 scale) STEME (Stellaria media [9]; 100 g/ha): 5 | herbicidal effect (0-9 scale) STEME (Stellaria media [9]; 400 g/ha): 9 | herbicidal effect (0-9 scale) MATIN (Matricaria inodora [10]; 100 g/ha): 9 | herbicidal effect (0-9 scale) MATIN (Matricaria inodora [10]; 400 g/ha): 9 | control of Matricaria (Matricaria inodora [10]; pre-emergence, 100 g/ha): good control | herbicidal effect (0-9 scale) TRZAW (Triticum aestivum [11]; 25 g/ha): 0 | herbicidal effect (0-9 scale) TRZAW (Triticum aestivum [11]; 100 g/ha): 1 | herbicidal effect (0-9 scale) TRZAW (Triticum aestivum [11]; 400 g/ha): 3 | wheat tolerance (Triticum aestivum [11]; post-emergence, 100 g/ha): good wheat tolerance | herbicidal effect (0-9 scale) ZEAMX (Zea mays [12]; 25 g/ha): 2 | herbicidal effect (0-9 scale) ZEAMX (Zea mays [12]; 100 g/ha): 3 | herbicidal effect (0-9 scale) ZEAMX (Zea mays [12]; 400 g/ha): 5 | herbicidal effect (0-9 scale) SETVI (Setaria viridis [13]; 25 g/ha): 8 | herbicidal effect (0-9 scale) SETVI (Setaria viridis [13]; 100 g/ha): 9 | herbicidal effect (0-9 scale) SETVI (Setaria viridis [13]; 400 g/ha): 9 | control of Setaria (Setaria viridis [13]; post-emergence, 100 g/ha): excellent control | herbicidal effect (0-9 scale) ECHCG (Echinochloa crus-galli [14]; 25 g/ha): 2 | herbicidal effect (0-9 scale) ECHCG (Echinochloa crus-galli [14]; 100 g/ha): 7 | herbicidal effect (0-9 scale) ECHCG (Echinochloa crus-galli [14]; 400 g/ha): 8 | herbicidal effect (0-9 scale) ALOMY (Alopecurus myosuroides [15]; 25 g/ha): 2 | herbicidal effect (0-9 scale) ALOMY (Alopecurus myosuroides [15]; 100 g/ha): 4 | herbicidal effect (0-9 scale) ALOMY (Alopecurus myosuroides [15]; 400 g/ha): 6 | herbicidal effect (0-9 scale) IPOHE (Ipomoea hederacea [16]; 25 g/ha): 9 | herbicidal effect (0-9 scale) IPOHE (Ipomoea hederacea [16]; 100 g/ha): 9 | herbicidal effect (0-9 scale) IPOHE (Ipomoea hederacea [16]; 400 g/ha): 9 | herbicidal effect (0-9 scale) GALAP (Galium aparine [17]; 25 g/ha): 6 | herbicidal effect (0-9 scale) GALAP (Galium aparine [17]; 100 g/ha): 8 | herbicidal effect (0-9 scale) GALAP (Galium aparine [17]; 400 g/ha): 9 | control of Galium aparine (Galium aparine [17]; post-emergence, 100 g/ha): excellent control | herbicidal effect (0-9 scale) ABUTH (Abutilon theophrasti [18]; 25 g/ha): 8 | herbicidal effect (0-9 scale) ABUTH (Abutilon theophrasti [18]; 100 g/ha): 9 | herbicidal effect (0-9 scale) ABUTH (Abutilon theophrasti [18]; 400 g/ha): 9 | herbicidal effect (0-9 scale) STEME (Stellaria media [19]; 25 g/ha): 4 | herbicidal effect (0-9 scale) STEME (Stellaria media [19]; 100 g/ha): 8 | herbicidal effect (0-9 scale) STEME (Stellaria media [19]; 400 g/ha): 9 | herbicidal effect (0-9 scale) MATIN (Matricaria inodora [20]; 25 g/ha): 7 | herbicidal effect (0-9 scale) MATIN (Matricaria inodora [20]; 100 g/ha): 8 | herbicidal effect (0-9 scale) MATIN (Matricaria inodora [20]; 400 g/ha): 9 | control of Cyperus (Cyperus): good control | control of Ambrosia (Ambrosia): good control | control of the weeds [21]: all of the weeds except Alopecurus were well controlled | control of all of the broadleaf weeds ([22]; 100 g/ha): excellent control | control of the weeds ([22]; dose not given): good cross spectrum control on both broadleaf weeds and grasses except Alopecurus | crop tolerance ([22]; dose not given): no observable crop tolerance | herbicidal performance [23]: good performance
